Experimental data: US20190367558A1, “ANTIBODY/DRUG CONJUGATES AND METHODS OF USE” (ESPERANCE PHARMACEUTICALS, INC., priority 2012, published 2019)

What was measured:
Format in all cases: cell-based, human
[1] = system: Daudi (CD20 positive Non-Hodgkin's lymphoma cells); test: Membrane integrity, Cytotox Glo luminometric assay (Examples 12, 16, 19, 20, 22); conditions: 4 h, CHO expressed IgG2 ADCs, Example 22
Method: (§1) Naked antibody anti-CD20-IgG1-Phor18 were chemically conjugated (MS4A and AT80), Mw app.158,000 g/mol at a concentrations of 0.34 mg/ml (MS4A-Phor18) and 0.76 mg/ml (AT-80-Phor18). Cell lines were obtained at the American Type Cell Collection (Mannassas, Va.). Human Non-Hodgkin's lymphoma cells Daudi (CD20 positive, passage number p2), Raji (CD20 positive p 2) and human leukemia cell line U937 (CD20 negative, p 10) were seeded at a density of 3,000 cells per well in opaque plates in heat inactivated full medium. After 24 hours cells were replenished with fresh media (75 μl) and incubated with 25 μl of a 4× serial dilution of MS4A1-Phor18 and AT80-Phor18 of 0.001, 0.01, 0.1, 1, 10, 100 and 500 nM (N=6). Cells incubated for 2-5 hours were assayed for membrane integrity using a luminometric assay kit (Promega, Madison, Wis., Cytotox Glo G9292 lot #301329). Cell viability was determined was determined after 24, and 48 hours using a luminescent assay kit (Promega, Madison, Wis., Cell Titer Glo, G 7572, lot 30068102).
(§2) The concentration of each naked antibody fragment and ADC was determined according to Bradford. Naked antibody scFv Mw 27,088 g/mol at a concentration of 0.3 mg/ml, minibody Mw 78,988 g/mol, 0.231 mg/ml; Phor 18 conjugated antibodies were scFv-Phor18 (Mw 29,349 g/mol, 0.9 mg/ml) and minibody-Phor18 (Mw 93,515, 0.48 mg/ml). Cell lines were obtained at the American Type Cell Collection (Mannassas, Va.). Human Non-Hodgkin's lymphoma cells Daudi (CD20 positive, passage number p8) and human leukemia cell line U937 (CD20 negative, p 16) were seeded at a density of 2,000 cells per well in opaque plates in heat inactivated full medium. After 24 hours cells were replenished with fresh media (75 μl) and incubated with 25 μl of a 4× serial dilution of scFv-Phor18 and minibody-Phor18 ADC and naked antibody fragment (scFv and minibody) prepared in cell culture media were added at concentrations of 0.0001, 0.001, 0.01, 0.1, 1, 10, 100, 200, and 500 nM (N=6). Cells incubated for 4 hours were assayed for membrane integrity using a luminometric assay kit (Promega, Madison, Wis., Cytotox Glo G9292 lot #301329). Cell viability was determined was determined after 24, 48 and 72 hours using a luminescent assay kit (Promega, Madison, Wis., Cell Titer Glo, G 7572, lot 30062102).
(§3) Controls for 100% cell viability (culture media) and 100% cell death (0.1% Triton X 100) incubated under the same conditions.
(§4) Data were processed and analyzed to obtain IC50 values using Graph Pad Prizm version 5.00 for Windows, GraphPad Software, San Diego Calif. USA, www-graphpad-com (Graph Pad Prizm, Inc). Statistical analysis for significance was determined by a two-tailed Student's T-test. Each test was conducted using 2 plates with 2-3 wells each to achieve an N of 4-6 data points per time point.
(§5) The concentration of each naked antibody fragment and ADC was determined spectrophotometrically (OD280). Naked antibody scFv-Fc Mw 52,562 g/mol at a concentration of 1.1 mg/ml, Phor 18 conjugated antibodies were Phor18-VL-scFvFc (Mw 54,685 g/mol, 1.0 mg/ml), scFv-Fc-CH3-Phor18 (Mw 54,685 g/mol, 0.8 mg/ml). Human Non-Hodgkin's lymphoma cells Daudi (CD20 positive, passage number p7) and human leukemia cell line U937 (CD20 negative, p 6) were seeded at a density of 2,000 cells per well in opaque plates in heat inactivated full medium using cell dissociation buffer. After 24 hours cells were replenished with fresh media (75 μl) and incubated and incubated with 25 μl of a 4× serial dilution of each ADC and naked antibody prepared in cell culture media were added at concentrations of 0.01, 0.1, 1, 10, 100, 200 and 500 nM for scFvFc, Phor18-VL-scFvFc and scFv-Fc-CH3-Phor18.
(§6) Cells incubated for 4 hours were assayed for membrane integrity using a luminometric assay kit (Promega, Madison, Wis., Cytotox Glo G9292 lot #26229601). Cell viability was determined was determined after 24 hours using a luminescent assay kit (Promega, Madison, Wis., Cell Titer Glo, G 7572, lot 30731602). […]

[2] = system: Daudi (CD20 positive Non-Hodgkin's lymphoma cells); test: Cell viability, Cell Titer Glo luminescent assay (Examples 12, 16, 19, 20, 22); conditions: CHO expressed IgG2 ADCs, Example 22
Method: as §1, §2, §3, §4, §5, §6

[3] = system: U937 (CD20 negative leukemia cell line); test: Membrane integrity, Cytotox Glo luminometric assay (Examples 19, 20, 22); conditions: CHO expressed IgG2 ADCs, Example 22
Method: as §5, with “After 24 hours cells were replenished with fresh media (75 μl) and incubated and incubated with 25 μl of a 4× serial dilution of each ADC and naked antibody prepared in cell culture media were added at concentrations of 0.01, 0.1, 1, 10, 100, 200 and 500 nM for scFvFc, Phor18-VL-scFvFc and scFv-Fc-CH3-Phor18.” left out
as §6
as §6, with “24, and 48” for “24”, “31386501).” for “30731602).”

[4] = system: U937 (CD20 negative leukemia cell line); test: Cell viability, Cell Titer Glo luminescent assay (Examples 12, 16, 19, 20, 22); conditions: CHO expressed IgG2 ADCs, Example 22
Method: as §1, §2, §5
Cells incubated for 4 hours were assayed for membrane integrity using a luminometric assay kit (Promega, Madison, Wis., Cytotox Glo G9292 lot #26229601). Cell viability was determined was determined after 24 hours using a luminescent assay kit (Promega, Madison, Wis., Cell Titer Glo, G 7572, lot 30731602). Controls for 100% cell viability (culture media) and 100% cell death (0.1% Triton X 100) incubated under the same conditions.
Human Non-Hodgkin's lymphoma cells Daudi (CD20 positive, passage number p3) and human leukemia cell line U937 (CD20 negative, p 12) were seeded at a density of 2,000 cells per well in opaque plates in heat inactivated full medium using cell dissociation buffer. […]

IgG2: naked anti-CD20 IgG2 with Rituxan CDRs, CHO cells [reference compound]
Not toxic: IC50, Daudi 4 h (Membrane integrity) [1] | IC50, Daudi 24 h ([2]; 24 h) | IC50, Daudi 48 h ([2]; 48 h) | IC50, U937 4 h (Membrane integrity) [3] | IC50, U937 24 h ([4]; U937, 24 h) | IC50, U937 48 h ([4]; U937, 48 h)
